Test results reported in patent publication US20100267561A1, “HERBICIDAL PYRIDAZINONE DERIVATIVES” (priority 2007, published 2010).
Like-named read-outs stand apart in the source and are kept apart here.

Tests used:
Test in all cases: Test B pre-/postemergence plant response
Format in all cases: in vivo
[1] = system: wheat (Triticum aestivum); conditions: for Wheat plant response rating: 8 g ai/ha; for plant injury at 16 g/ha: 16 g ai/ha; for plant injury at 62 g/ha: 62 g ai/ha
Outline: (§1)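 Seeds were sown and sprayed preemergence, while plants at 2 to 18 cm (1- to 4-leaf stage) got postemergence sprays. Compounds were formulated in a non-phytotoxic solvent mixture with surfactant. After 13 to 15 days in a greenhouse, injury was rated visually against untreated controls, 0 (no effect) to 100 (complete control).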

soybean (Glycine max) = conditions: for Soybean plant response rating: 8 g ai/ha; for plant injury at 16 g/ha: 16 g ai/ha; for plant injury at 62 g/ha: 62 g ai/ha
Outline: as §1

[2] = system: common ragweed (Ambrosia elation); conditions: for Ragweed plant response rating: 8 g ai/ha; for pest or weed control at 16 g/ha / pest or weed control at 31 g/ha / pest or weed control at 62 g/ha: Ambrosia, read-out: Plant response rating, Ragweed; for pest or weed control at 16 g/ha: 16 g ai/ha; for pest or weed control at 31 g/ha: 31 g ai/ha; for pest or weed control at 62 g/ha: 62 g ai/ha
Outline: as §1

[3] = system: johnsongrass (Sorghum halepense); conditions: for Johnsongrass plant response rating: 8 g ai/ha; for pest or weed control at 16 g/ha / pest or weed control at 31 g/ha / pest or weed control at 62 g/ha: Sorghum halepense, read-out: Plant response rating, Johnsongrass; for pest or weed control at 16 g/ha: 16 g ai/ha; for pest or weed control at 31 g/ha: 31 g ai/ha; for pest or weed control at 62 g/ha: 62 g ai/ha
Outline: as §1

[4] = system: lambsquarters (Chenopodium album); conditions: for Lambsquarters plant response rating: 8 g ai/ha; for pest or weed control at 16 g/ha / pest or weed control at 31 g/ha / pest or weed control at 62 g/ha: Chenopodium album, read-out: Plant response rating, Lambsquarters; for pest or weed control at 16 g/ha: 16 g ai/ha; for pest or weed control at 31 g/ha: 31 g ai/ha; for pest or weed control at 62 g/ha: 62 g ai/ha
Outline: as §1

kochia (Kochia scoparia) = conditions: for Kochia plant response rating: 8 g ai/ha; for Plant response rating, Kochia: Postemergence
Outline: as §1

[5] = system: velvetleaf (Abutilon theophrasti); conditions: for Velvetleaf plant response rating: 8 g ai/ha; for pest or weed control at 16 g/ha: 16 g ai/ha; for pest or weed control at 62 g/ha: 62 g ai/ha
Outline: as §1

[6] = post-emergence, Postemergence, scale 0 to 100
[7] = post-emergence, Postemergence, scale 0 to 100, 0 no effect, 100 complete control
[8] = pre-emergence, Preemergence, scale 0 to 100 (0 no effect, 100 complete control)
[9] = pre-emergence, Preemergence, 0 to 100 scale, 0 no effect, 100 complete control
[10] = pre-emergence, Preemergence, scale 0 to 100

Compound: CCc1c(C)c(-c2ccc(Cl)cc2)nn1-c1c(O)cnn(C)c1=O [Compound 26, 4-[3-(4-chlorophenyl)-5-ethyl-4-methyl-1H-pyrazol-1-yl]-5-hydroxy-2-methyl-3(2H)-pyridazinone]
- Wheat plant response rating ([1]; postemergence, 0-100 scale): 0
- Wheat plant response rating ([1]; Preemergence, scale 0 to 100): 0
- plant injury at 16 g/ha ([1]; Triticum aestivum, post-emergence, Postemergence, scale 0 to 100, read-out: Plant response rating, Wheat): 0%
- plant injury at 62 g/ha ([1]; Triticum aestivum, post-emergence, Postemergence, scale 0 to 100, 0 no effect, 100 complete control, read-out: Plant response rating, Wheat): 5%
- plant injury at 16 g/ha ([1]; Triticum aestivum, pre-emergence, Preemergence, scale 0 to 100 (0 no effect, 100 complete control), read-out: Plant response rating, Wheat): 0%
- plant injury at 31 g/ha ([1]; Triticum aestivum, pre-emergence, Preemergence, 31 g ai/ha, 0 to 100 scale, 0 no effect, 100 complete control, read-out: Plant response rating, Wheat): 0%
- plant injury at 62 g/ha ([1]; Triticum aestivum, pre-emergence, Preemergence, scale 0 to 100, read-out: Plant response rating, Wheat): 0%
- Soybean plant response rating (soybean (Glycine max); postemergence, 0-100 scale): 0
- plant injury at 16 g/ha (soybean (Glycine max); Glycine max, post-emergence, Postemergence, scale 0 to 100, read-out: Plant response rating, Soybean): 0%
- plant injury at 62 g/ha (soybean (Glycine max); Glycine max, post-emergence, Postemergence, scale 0 to 100, 0 no effect, 100 complete control, read-out: Plant response rating, Soybean): 0%
- plant injury at 16 g/ha (soybean (Glycine max); Glycine max, pre-emergence, Preemergence, scale 0 to 100 (0 no effect, 100 complete control), read-out: Plant response rating, Soybean): 0%
- plant injury at 31 g/ha (soybean (Glycine max); Glycine max, pre-emergence, Preemergence, 31 g ai/ha, 0 to 100 scale, 0 no effect, 100 complete control, read-out: Plant response rating, Soybean): 0%
- plant injury at 62 g/ha (soybean (Glycine max); Glycine max, pre-emergence, Preemergence, scale 0 to 100, read-out: Plant response rating, Soybean): 0%
- Soybean plant response rating (soybean (Glycine max); Preemergence, scale 0 to 100): 0
- Ragweed plant response rating ([2]; postemergence, 0-100 scale): 0
- pest or weed control at 16 g/ha [2, 6]: 0%
- pest or weed control at 31 g/ha [2, 7]: 0%
- pest or weed control at 62 g/ha [2, 7]: 0%
- pest or weed control at 16 g/ha [2, 8]: 0%
- pest or weed control at 31 g/ha [2, 9]: 0%
- pest or weed control at 62 g/ha [2, 10]: 0%
- Ragweed plant response rating ([2]; Preemergence, scale 0 to 100): 0
- Johnsongrass plant response rating ([3]; postemergence, 0-100 scale): 0
- Johnsongrass plant response rating ([3]; Preemergence, scale 0 to 100): 0
- pest or weed control at 16 g/ha [3, 6]: 0%
- pest or weed control at 31 g/ha [3, 7]: 20%
- pest or weed control at 62 g/ha [3, 7]: 20%
- pest or weed control at 16 g/ha [3, 8]: 0%
- pest or weed control at 31 g/ha [3, 9]: 0%
- pest or weed control at 62 g/ha [3, 10]: 50%
- Lambsquarters plant response rating ([4]; postemergence, 0-100 scale): 0
- pest or weed control at 16 g/ha [4, 6]: 0%
- pest or weed control at 31 g/ha [4, 7]: 0%
- pest or weed control at 62 g/ha [4, 7]: 0%
- pest or weed control at 16 g/ha [4, 8]: 0%
- pest or weed control at 31 g/ha [4, 9]: 0%
- pest or weed control at 62 g/ha [4, 10]: 0%
- Lambsquarters plant response rating ([4]; Preemergence, scale 0 to 100): 0
- Kochia plant response rating (kochia (Kochia scoparia); postemergence, 0-100 scale): 0
- Plant response rating, Kochia (kochia (Kochia scoparia); 16 g ai/ha, scale 0 to 100): 0
- Plant response rating, Kochia (kochia (Kochia scoparia); 31 g ai/ha, scale 0 to 100, 0 no effect, 100 complete control): 0
- Plant response rating, Kochia (kochia (Kochia scoparia); 62 g ai/ha, scale 0 to 100, 0 no effect, 100 complete control): 0
- Kochia plant response rating (kochia (Kochia scoparia); Preemergence, scale 0 to 100): 0
- Velvetleaf plant response rating ([5]; postemergence, 0-100 scale): 0
- pest or weed control at 16 g/ha ([5]; Abutilon theophrasti, post-emergence, Postemergence, scale 0 to 100, read-out: Plant response rating, Velvetleaf): 0%
- pest or weed control at 62 g/ha ([5]; Abutilon theophrasti, post-emergence, Postemergence, scale 0 to 100, 0 no effect, 100 complete control, read-out: Plant response rating, Velvetleaf): 0%
- pest or weed control at 16 g/ha ([5]; Abutilon theophrasti, pre-emergence, Preemergence, scale 0 to 100 (0 no effect, 100 complete control), read-out: Plant response rating, Velvetleaf): 0%
- pest or weed control at 31 g/ha ([5]; Abutilon theophrasti, pre-emergence, Preemergence, 31 g ai/ha, 0 to 100 scale, 0 no effect, 100 complete control, read-out: Plant response rating, Velvetleaf): 0%
- pest or weed control at 62 g/ha ([5]; Abutilon theophrasti, pre-emergence, Preemergence, scale 0 to 100, read-out: Plant response rating, Velvetleaf): 0%
- Velvetleaf plant response rating ([5]; Preemergence, scale 0 to 100): 0
